Patent US6403589B1, “Method of treating pain with draflazine-analogues” (Janssen Pharmaceutica N.V., priority 1997, dated 2002)

Tests used:
[1] = test system: rabbits; settings: acute pain stimulus; cited from earlier work
[2] = test system: mice; settings: acute pain stimulus; cited from earlier work
[3] = test system: dogs; settings: acute pain stimulus; cited from earlier work
[4] = test system: patients with unstable angina; settings: during the 24 hour observation period; draflazine treated patients with unstable angina; cited from earlier work

## CNC(=O)C1CN(CCCC(c2ccc(F)cc2)c2ccc(F)cc2)CCN1CC(=O)Nc1c(C)cc(C)cc1C (stereo not shown) [Compound 2, 4-[4,4-bis(4-fluorophenyl)butyl]-2-[(methylamino)carbonyl]-N-(2,4,6-trimethylphenyl)-1-piperazineacetamide]
other
  melting point: 90.2 °C

## CNC(=O)C1CN(CC(=O)Nc2c(Cl)cccc2C(C)=O)CCN1CCCC=C(c1ccc(F)cc1)c1ccc(F)cc1.O=C(O)C(=O)O.O=C(O)C(=O)O (racemic) [Compound 18, (±)-N-(2-acetyl-6-chlorophenyl)-4-[5,5-bis(4-fluorophenyl)-4-pentenyl]-3-[(methylamino)carbonyl]-1-piperazineacetamide ethanedioate (1:2)]
other
  melting point: 140 °C

## Cc1cccc(C)c1NC(=O)CN1CCN(CCCC(c2ccc(F)cc2)c2ccc(F)cc2)CC1 [lidoflazine]
[1]
  pain treshold to electrical stimulation of incisor teeth: increased
[2]
  reaction time to thermal stimulation: significantly increased
[3]
  pain treshold to electrical stimulation of canine teeth: not

## CNC(=O)C1CN(CC(=O)Nc2c(C)cc(C)cc2C)CCN1CCCC(c1ccc(F)cc1)c1ccc(F)cc1 (stereo not shown) [Compound 1, 4-[4,4-bis(4-fluorophenyl)butyl]-3-[(methylamino)-carbonyl]-N-(2,4,6-trimethylphenyl)-1-piperazineacetamide]
other
  melting point: 82.3 °C

## NC(=O)[C@@H]1CN(CCCCC(c2ccc(F)cc2)c2ccc(F)cc2)CCN1CC(=O)Nc1c(Cl)cc(N)cc1Cl [Compound 13, S-(−)-2-(aminocarbonyl)-N-(4-amino-2,6-dichlorophenyl)-4-[5,5-bis(4-fluorophenyl)-pentyl]-1-piperazineacetamide]
[4]
  mean duration of chest pain: 75.5 min
